A value given as a limit tells only on which side of the number the result lay.

The values that follow come from patent US9452997B2, “Piperidine and piperazine derivatives as autotaxin inhibitors” (Merck Patent GmbH, priority 2009, dated 2016).

The experiment deals with T1, Recombinant autotaxin (Homo sapiens, UniProt Q13822).
T1 construct: made in house; host or cells: Hi5 insect cells (baculovirus)
Description: Autotaxin assay (Amplex Red, LPC substrate). The class given is biochemical. Conditions: recombinant autotaxin, LPC substrate, Amplex Red detection; values given as upper bounds. The protocol:
Autotaxin activity is measured indirectly by means of Amplex Red Reagent. In this course, Amplex Red is measured as fluorogenic indicator for generated H2O2. Autotaxin converts substrate lysophosphatidylcholine (LPC) to phosphocholine and lysophosphatidylic acid (LPA). After the conversion phosphocholine is reacted with alkaline phosphatase to obtain inorganic phosphate and choline. During the next step choline is oxidized with choline oxidase to yield betaine, whereby H2O2 is generated. H2O2 reacts with Amplex Red Reagent in the presence of peroxidase (Horseradish peroxidase) in an 1:1 stochiometry and yields highly fluorescent resorufin. The generated fluorescence is measured in a reaction-dependent kinetic mode in order to enable subtraction of fluorescence signals of possible other fluorescent compounds that are not part of the reaction from total measured fluorescence.
1.5 μl of a standard solution or of the compounds of the invention are dissolved in 20 mM Hepes pH 7.2 with maximally 7.7% DMSO in individual concentrations. The resulting solution is pre-incubated together with 10 μl (16 ng) of highly purified recombinant autotaxin in a black 384-hole microtiter plate for 30 min at 22° C.
Thereafter, the reaction is started through the addition of 5 μL-a-lysophosphatidyl-choline (LPC), whereby the final concentration of LPC is 75 μM. The mixture is incubated for 90 min. at 37° C. After the incubation Amplex Red Reagent, peroxidase (Horseradish peroxidase) and choline oxidase are added. The fluorescence is immediately measured at a wavelength of 612 nm with an excitation wavelength of 485 nm in a “Tecan Ultra multimode” fluorescence reader. The activity of autotaxin is indirectly calculated via the amount of detected generated H2O2.
For IC50 analysis, ten serial 1:3 dilutions starting at 30 μM for each compound were run in duplicates.
IC50 values were calculated on normalized data. For normalization, control wells were added to each assay plate and the signal of uninhibited control wells was set to 100%, whereas the signal inhibited by 500 μM C14 LPA, (Avanti Polar Lipids, Cat#857120P) was set to 0%. Curves were fitted and IC50 values calculated by the following model using proprietory analysis software: Y=Bottom+(100−Bottom)/(1+10^((Log IC50−X)*HillSlope)) Where X is the logarithm of concentration. Y is the response; Y starts at Bottom and goes to Top with a sigmoid shape. Material
Microtiter plate: PS-Microplate, 384-hole, small volume, black Corning, Cat#3677
Protein: Recombinant autotaxin (baculoviral Hi5 expression)
Substrate: L-a-lysophosphatidyl choline (chicken egg); Avanti Polar Lipids #830071P
Standard: C14 LPA, Avanti Polar Lipids, Cat#857120P
Detection Reagent: Amplex Red Reagent; Invitrogen #A12222; dissolved in 1.923 ml of DMSO peroxidase Type VI-A (horseradish), Sigma #P6782; dissolved in 7.45 ml of test buffer, Choline Oxidase; Sigma #C5896; dissolved in 2.47 ml test buffer
Detection Reagent Mix: 1:100 dilution of Amplex Red Regent in test buffer
Test buffer: 200 mM Tris-HCl, Merck, Cat #1.08219, pH 7.9; 0.1% BSA, lipid free, Roche Cat#775835

As a reminder, the IC50 is the midpoint of a concentration-inhibition curve. With `O=C(CCc1ccccc1O)N1CCC(C2CCN(C(=O)c3ccccc3-c3cccc(C(F)(F)F)c3)CC2)CC1` [Compound 1, 3-(2-Hydroxy-phenyl)-1-[1′-(3′-trifluoromethyl-biphenyl-2-carbonyl)-[4,4′]bipiperidinyl-1-yl]-propan-1-one], the IC50 was below 1 µM.
`O=C(Nc1ccc2[nH]nnc2c1)C1CC(=O)N(C2CCN(C(=O)OCc3ccc(Cl)cc3)CC2)C1` (stereo not shown) [Compound 2, 4-[4-(1H-Benzotriazol-5-ylcarbamoyl)-2-oxo-pyrrolidin-1-yl]-piperidine-1-carboxylic acid 4-chloro-benzyl ester]: the IC50 is below 1 µM.
Take `O=C(Nc1ccc2[nH]nnc2c1)C1CC(=O)N(C2CCN(C(=O)CCc3ccc(C(F)(F)F)cc3)CC2)C1` (stereo not shown) [Compound 3, 5-Oxo-1-{1-[3-(4-trifluoromethyl-phenyl)-propionyl]-piperidin-4-yl}-pyrrolidine-3-carboxylic acid (1H-benzotriazol-5-yl)-amide]: the IC50 was below 1 µM.
In the case of `O=C(Nc1ccc2[nH]nnc2c1)C1CC(=O)N(C2CCN(C(=O)OCc3cc(Cl)cc(Cl)c3)CC2)C1` (stereo not shown) [Compound 4, 4-[4-(1H-Benzotriazol-5-ylcarbamoyl)-2-oxo-pyrrolidin-1-yl]-piperidine-1-carboxylic acid 3,5-dichloro-benzyl ester], the IC50 was below 1 µM.
The result for `O=C(Nc1ccc2[nH]c(=O)oc2c1)c1cncc(N2CCN(C(=O)OCc3ccc(Cl)cc3)CC2)c1` [Compound 5, 4-[5-(2-Oxo-2,3-dihydro-benzooxazol-6-ylcarbamoyl)-pyridin-3-yl]-piperazine-1-carboxylic acid 4-chloro-benzyl ester] reads below 10 µM; that for `O=C(Nc1ccc2[nH]nnc2c1)c1cncc(N2CCN(C(=O)OCc3ccc(Cl)cc3)CC2)c1` [Compound 6, 4-[5-(1H-Benzotriazol-5-ylcarbamoyl)-pyridin-3-yl]-piperazine-1-carboxylic acid 4-chloro-benzyl ester], below 30 µM; that for `O=C(NC1CCN(C2CCN(C(=O)OCc3ccc(Cl)cc3)CC2)C1)c1ccc2[nH]nnc2c1` (stereo not shown) [Compound 7, 4-{3-[(1H-Benzotriazole-5-carbonyl)-amino]-pyrrolidin-1-yl}-piperidine-1-carboxylic acid 4-chloro-benzyl ester], below 10 µM.
As for `O=C(NC1CCN(C2CCN(C(=O)OCc3cc(Cl)cc(Cl)c3)CC2)C1)c1ccc2[nH]nnc2c1` (stereo not shown) [Compound 9, 4-{3-[(1H-Benzotriazole-5-carbonyl)-amino]-pyrrolidin-1-yl}-piperidine-1-carboxylic acid 3,5-dichloro-benzyl ester], the IC50 was below 1 µM.
On to `O=C(Nc1ccc2[nH]nnc2c1)c1cccc(N2CCN(C(=O)OCc3ccc(Cl)cc3)CC2)c1` [Compound 10, 4-[3-(1H-Benzotriazol-5-ylcarbamoyl)-phenyl]-piperazine-1-carboxylic acid 4-chloro-benzyl ester], for which the IC50 was below 30 µM.
For `Cc1ccc(-c2ccccc2C(=O)N2CCC(C3CCN(C(=O)c4ccc5[nH]nnc5c4)CC3)CC2)cc1` [Compound 11, [1′-(1H-Benzotriazole-5-carbonyl)-[4,4′]bipiperidinyl-1-yl]-(4′-methyl-biphenyl-2-yl)-methanone], the IC50 was below 1 µM.
Turning to `O=C(OCc1cc(Cl)cc(Cl)c1)N1CCC(C2CCN(C(=O)c3ccc4[nH]nnc4c3)CC2)CC1` [Compound 12, 1′-(1H-Benzotriazole-5-carbonyl)-[4,4′]bipiperidinyl-1-carboxylic acid 3,5-dichloro-benzyl ester], the IC50 was below 1 µM.
The result for `Cc1ccc(-c2cccc(C(=O)N3CCC(C4CCN(C(=O)c5ccc6[nH]nnc6c5)CC4)CC3)c2)cc1` [Compound 13, [1′-(1H-Benzotriazole-5-carbonyl)-[4,4′]bipiperidinyl-1-yl]-(4′-methyl-biphenyl-3-yl)-methanone] reads below 10 µM.
As for `O=C(Nc1ccc2[nH]c(=O)oc2c1)C1CC(=O)N(C2CCN(C(=O)OCc3cc(Cl)cc(Cl)c3)CC2)C1` (stereo not shown) [Compound 15, 4-[2-Oxo-4-(2-oxo-2,3-dihydro-benzooxazol-6-ylcarbamoyl)-pyrrolidin-1-yl]-piperidine-1-carboxylic acid 3,5-dichloro-benzyl ester], the IC50 is below 1 µM.
Then `O=C(Nc1ccc2[nH]c(=O)oc2c1)C1CC(=O)N(C2CCN(C(=O)OCc3ccc(Cl)cc3)CC2)C1` (stereo not shown) [Compound 16, 4-[2-Oxo-4-(2-oxo-2,3-dihydro-benzooxazol-6-ylcarbamoyl)-pyrrolidin-1-yl]-piperidine-1-carboxylic acid 4-chloro-benzyl ester], with below 10 µM.
For the compound `O=C(NCCc1ccccn1)C1CC(=O)N(C2CCN(C(=O)OCc3cc(Cl)cc(Cl)c3)CC2)C1` (stereo not shown) [Compound 17, 4-[2-Oxo-4-(2-pyridin-2-yl-ethylcarbamoyl)-pyrrolidin-1-yl]-piperidine-1-carboxylic acid 3,5-dichloro-benzyl ester], the IC50 was below 10 µM.
On to `O=C(OCc1cc(Cl)cc(Cl)c1)N1CCN(C2CCN(C(=O)c3ccc4[nH]nnc4c3)CC2)CC1` [Compound 19, 4-[1-(1H-Benzotriazole-5-carbonyl)-piperidin-4-yl]-piperazine-1-carboxylic acid 3,5-dichloro-benzyl ester], for which the IC50 is below 1 µM.
As to `O=C(OCc1cc(Cl)cc(Cl)c1)N1CCC(N2CCN(C(=O)c3ccc4[nH]nnc4c3)CC2)CC1` [Compound 20, 4-[4-(1H-Benzotriazole-5-carbonyl)-piperazin-1-yl]-piperidine-1-carboxylic acid 3,5-dichloro-benzyl ester], the IC50 is below 1 µM.
For `O=C(CCc1ccccc1O)N1CCC(N2CCN(C(=O)c3ccccc3-c3cccc(C(F)(F)F)c3)CC2)CC1` [Compound 21, 3-(2-Hydroxy-phenyl)-1-{4-[4-(3′-trifluoromethyl-biphenyl-2-carbonyl)-piperazin-1-yl]-piperidin-1-yl}-propan-1-one], the IC50 is below 1 µM.
The result for `O=C(CCc1ccc(C(F)(F)F)cc1)N1CCC(C2CCN(C(=O)c3ccc4[nH]nnc4c3)CC2)CC1` [Compound 22, 1-[1′-(1H-Benzotriazole-5-carbonyl)-[4,4′]bipiperidinyl-1-yl]-3-(4-trifluoromethyl-phenyl)-propan-1-one] reads below 1 µM; that for `O=C(Cc1ccc(Cl)cc1)N1CCC(C2CCN(C(=O)c3ccc4[nH]nnc4c3)CC2)CC1` [Compound 23, 1-[1′-(1H-Benzotriazole-5-carbonyl)-[4,4′]bipiperidinyl-1-yl]-2-(4-chloro-phenyl)-ethanone], below 30 µM.
As for `Cc1nc(-c2ccc(C(F)(F)F)cc2)sc1C(=O)N1CCC(N2CC(C(=O)Nc3ccc4[nH]nnc4c3)CC2=O)CC1` (stereo not shown) [Compound 24, 1-{1-[4-Methyl-2-(4-trifluoromethyl-phenyl)-thiazole-5-carbonyl]-piperidin-4-yl}-5-oxo-pyrrolidine-3-carboxylic acid (1H-benzotriazol-5-yl)-amide], the IC50 is below 10 µM.
On to `O=C(OCc1cc(Cl)cc(Cl)c1)N1CCC(N2CCN(C(=O)c3ccc4[nH]c(=O)oc4c3)CC2)CC1` [Compound 25, 4-[4-(2-Oxo-2,3-dihydro-benzooxazole-6-carbonyl)-piperazin-1-yl]-piperidine-1-carboxylic acid 3,5-dichloro-benzyl ester], for which the IC50 is below 1 µM.
